Data reported in article PMC10057996, “A Comparative Study of the Inhibitory Action of Berberine Derivatives on the Recombinant Protein FtsZ of E. coli” (International Journal of Molecular Sciences, 2023).
Structures can show the parent of a compound that is named as a salt.

How the values were obtained:
FtsZ [1] = biological target: T1, FtsZ (Escherichia coli, UniProt P0A9A6); assay: FtsZ GTPase assay (BIOMOL Green, Pi release); format: biochemical, E. coli; details: for inhibition mechanism on FtsZ GTPase activity: from KM and Vmax changes at 40 µM compound; for Vmax (Pi Released/min): in presence of 40 µM compound, 6 µM FtsZ, pH 6.8, untreated 0.63 ± 0.01
T1 construct: made in house; host or cells: E. coli
T1 sequence (P0A9A6 whole entry): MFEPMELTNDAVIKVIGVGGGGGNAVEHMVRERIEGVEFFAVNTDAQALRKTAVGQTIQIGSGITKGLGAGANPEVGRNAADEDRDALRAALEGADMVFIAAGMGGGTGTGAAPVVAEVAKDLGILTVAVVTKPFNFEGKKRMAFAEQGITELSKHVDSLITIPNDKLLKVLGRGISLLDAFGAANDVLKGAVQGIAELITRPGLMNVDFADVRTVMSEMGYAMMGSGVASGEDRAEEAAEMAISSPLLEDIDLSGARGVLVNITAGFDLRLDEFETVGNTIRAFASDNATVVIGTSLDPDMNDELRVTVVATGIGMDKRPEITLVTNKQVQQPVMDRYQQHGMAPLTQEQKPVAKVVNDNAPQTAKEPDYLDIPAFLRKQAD
Procedure: The functional effect of the berberine analogues 1c,d,f,i, and 1-2g,h on FtsZ was investigated by enzymatic assays. A recombinant form of FtsZ was produced in E. coli, purified according to [21], and used for binding assays. The GTPase activity of the FtsZ protein was assayed in the presence of the berberine-related compounds at 40 μM concentration and was monitored in comparison with the untreated protein at different GTP concentrations. The kinetic parameters were calculated according to the Michaelis–Menten equation using GraphPad Prism 8 for all the berberine-related compounds. The software returned KM (μM) and Vmax (Pi released/min) kinetic parameters that indicated the mechanism of inhibition exerted by each compound.
The determination of the inhibition constant Ki for these compounds was performed to further investigate the mode of inhibition and clarified the potency of the competitive inhibitors. The Ki values were calculated performing kinetic analyses at different concentrations of competitive inhibitors (20 μM, 40 μM, and 60 μM).
The FtsZ GTPase assay was performed using 6 μM FtsZ in reaction buffer 25 mM PIPES/NaOH, pH 6.8. The mixture containing FtsZ was incubated for 30 min at 30 °C, and different concentrations of GTP (from 0 µM to 500 µM) were added for a reaction time of 10 min, either in the absence or in the presence of 40 µM 1c, 1d, 1f, 1i, 1g, 1h, 2g, and 2h. The reaction was performed for 10 min and stopped by the addition of 100 µL BIOMOL Green reagent. The amount of Pi released during the assembly of FtsZ was monitored using BIOMOL Green phosphate reagent (Biomol, Milan, Italy) after incubation at 25 °C for 25 min by measuring the absorbance at 620 nm. The negative control (without enzyme) was subtracted from all the readings. The experiment was performed in duplicate. The data were elaborated in order to report U/mg VS substrate concentration, and kinetic parameters were fitted by nonlinear regression with GraphPad Prism 8 (GraphPad Software, San Diego, CA, USA). The inhibition constant (Ki) for all competitive inhibitors was calculated performing different kinetic analyses in the presence of 20, 40, and 60 µM of compounds and using the following equation: Ki=I/α−1 where α=KMapp/KM

E. coli = assay: Minimum inhibitory concentration determination; format: cell-based; details: Escherichia coli, 24 h, read-out: MIC E. coli
Procedure: Finally, we evaluated the in vitro antimicrobial activity of the newly synthesized berberine analogues (2g,h) on E. coli strain. The Minimal Inhibitory Concentrations (MICs) of both compounds were determined as the lowest concentration showing no visible growth after 24 h of incubation. The MIC values for 2g and 2h are reported in Table 4, together with the most interesting compounds previously reported.
In brief, the bacterial strain was incubated overnight in LB at 37 °C. The cultures were diluted approximately to 5 × 10^5 CFU/mL, and 50 μL of bacterial suspension was added to ten wells and incubated with serial dilutions of berberine analogues from an initial concentration of 500 µM. The sterility control well contained 100 μL of LB, while the growth control well contained 100 μL of microbial suspension. […] All determinations of all assays were performed in triplicate.

FtsZ [2] = biological target: T1, FtsZ; assay: Fluorescence binding assay (quenching of compound fluorescence by FtsZ); parameters: species or system E. coli; details: dissociation constant Kd, excitation 295 nm, emission 327 nm, 20 °C
Procedure: Therefore, the intrinsic fluorescence of compound 1c was monitored at increasing concentrations of recombinant FtsZ. The sample was excited at 295 nm, and the fluorescence emission of the compound 1c was recorded.
A 1.5 mL solution containing the 1c compound was titrated by successive additions of FtsZ protein (from 0.010 to 0.120 µM). Titrations were done manually, and fluorescence spectra were measured in the range of 280–500 nm at the excitation wavelength of 295 nm. The fluorescence spectra were recorded using a Horiba Scientific Fluoromax-4 spectrofluorometer, using a quartz cell with an optical path of 1 cm, under controlled temperature conditions (Peltier control system at 20 °C). All experiments were carried out in duplicate. The change in the fluorescence intensity of the reaction set was fitted into the “one site-specific binding” equation of GraphPad Prism 8 (GraphPad Software, San Diego, CA, USA).
Figure 6 Fluorescence binding assay of compound 1c with FtsZ. (a) Emission fluorescence spectra at different concentrations of FtsZ. (b) ΔF at 325 nm vs FtsZ concentration. Experimental data were adjusted to a non-linear regression, and the Kd binding constant was estimated using GraphPad Prism 8. The experiments were performed in duplicate, and the standard deviation is reported as error bars.

FtsZ [3] = biological target: T1, FtsZ; assay: FtsZ polymerization assay by sedimentation, SDS-PAGE densitometry; format: biochemical, E. coli; details: inhibitor concentration 60 µM, 150 µM GTP
Procedure: Inhibition of the GTPase activity of FtsZ might prevent the polymerization of the protein, which is well known to occur in the presence of GTP. We then investigated the effect of berberine analogues on the polymerization of FtsZ. The recombinant protein was incubated with 150 µM GTP in the absence and in the presence of increasing concentrations of berberine-related compounds. The FtsZ filaments were purified by centrifugation, analysed by SDS-PAGE, and the amount of polymerized protein was determined by densitometric analysis of the corresponding Coomassie-stained gel bands.
Assays for FtsZ polymerization by sedimentation were performed by incubating 6 μM FtsZ with 150 µM GTP in 25 mM PIPES/NaOH, pH 6.8 for 60 min at 25 °C. The assays were carried out in the presence and in the absence of 20 μM, 40 μM, and 60 μM of berberine analogues. The reaction mixtures were centrifuged for 60 min at 14,000 rpm, the pellets were run on 12.5% sodium dodecyl sulphate (SDS)-polyacrylamide gels, and stained by Coomassie blue. Subsequently, the images of the gels were acquired by ChemiDocTM, and the relative amount of FtsZ in the bands was determined densitometrically using the Quantity One software.
Figure 3 Polymerization assay of recombinant FtsZ (6 µM) was carried out in 25 mM PIPES/NaOH, pH 6.8, and 150 µM of GTP in the presence of berberine analogues. […]

FtsZ [4] = biological target: T1, FtsZ; assay: TEM microscopy of FtsZ protofilaments; format: biochemical, E. coli; details: 60 µM compound, 150 µM GTP
Procedure: The capability of berberine analogue 1i to inhibit FtsZ polymerization was also assessed by TEM microscopy, by analysing the FtsZ protofilaments of in the presence of 60 µM 1i in comparison with the untreated sample.
FtsZ polymerization reaction solutions were diluted 1:10 in polymerization buffer in the presence and in the absence of 60 µM 1c and 1i. Then, 5 µL drops of the samples for TEM analysis were placed on a carbon-coated copper TEM grid for 20 min. Excess solution was wicked away with filter paper. Negative staining with 1% phosphotungstic acid (PTA) solution at pH 7.0 was carried out by depositing a drop of PTA solution on the grid for 1 min and then blotted dry with filter paper. The grid was allowed to dry, and images were collected using a FEI TECNAI G2 S-twin apparatus operating at 120 kV (LaB6 source).
Figure 4 Transmission electron microscopic images of FtsZ in the absence (a) and in the presence of 1i inhibitors (b). The protofilaments are seen to be polymerized in an organized manner in the absence of inhibitor (a). 1i at 60 μM concentrations inhibit the FtsZ polymerization. Experimental conditions for all the FtsZ polymerization studies were […], PIPES 25 mM pH 6.8, KCl 50 mM, and 150 µM GTP.

SMILES | Ki (FtsZ [1]) [µM] | inhibition mechanism on FtsZ GTPase activity (FtsZ [1]) | Vmax (Pi Released/min) (FtsZ [1]) [Pi released/min] | MIC (E. coli) [µM] | Kd (FtsZ [2]) [µM] | amount of polymerized FtsZ (FtsZ [3]) | FtsZ protofilaments observed by TEM (FtsZ [4]) | melting point [°C]
c1ccc2c(CNCCc3ccc4c(c3)OCO4)cccc2c1 [1h] | 119 | classical competitive inhibition mechanism | 0.59 ± 0.01 | – | – | – | – | –
Clc1ccc(CNCCc2ccc3c(c2)OCO3)cc1 [1g] | 41 | classical competitive inhibition mechanism | 0.60 ± 0.02 | – | – | – | – | –
CCN(CCc1ccc2c(c1)OCO2)Cc1cccc(OC)c1OC [1d] | 44 | classical competitive inhibition mechanism | 0.58 ± 0.01 | – | – | – | – | –
CCCCCCN(CCc1ccc2c(c1)OCO2)Cc1cccc(OC)c1OC [1f] | – | non-competitive inhibition mechanism | 0.35 ± 0.01 | – | – | – | – | –
CN(CCc1ccc2c(c1)OCO2)Cc1ccc(Cl)cc1 [2g, 2-(1,3-Benzodioxol-5-yl)-N-[(4-chlorobenzyl]-N-methylethan-1-amine hydrochloride] | – | acompetitive inhibitory mechanism | – | 128 | – | – | – | –
COc1cccc(CN(C)CCc2ccc3c(c2)OCO3)c1OC [1c] | 25 | classical competitive inhibition mechanism | 0.54 ± 0.03 | – | 0.0266 | – | – | –
O=[N+]([O-])c1ccccc1CNCCc1ccc2c(c1)OCO2 [1i] | – | non-competitive inhibition mechanism | – | – | – | almost negligible | no protofilaments could be observed | –
CN(CCc1ccc2c(c1)OCO2)Cc1cccc2ccccc12.Cl [2h, 2-(2H-1,3-Benzodioxol-5-yl)-N-methyl-N-[(naphthalen-1-yl)methyl]ethan-1-amine hydrochloride] | 51 | classical competitive inhibition mechanism | 0.58 ± 0.01 | > 512 | – | – | – | 188 to 190
